#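 48-hour exposure; five concentrations; linearly interpolated endpoints. The concentration for 50% growth inhibition is given as GI50.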 Calls of active or inactive are those of the source. No stated cut-off is given here; in the data, active = GI50 up to about 1.1 µM and inactive = higher.
# What was measured:
# Test in all cases: inhibition of tumour cell growth, NCI panel, 48 h
# 786-0 = system: 786-0
# EKVX = system: EKVX
# HT-29 = system: HT-29
# KM12 = system: KM12
# M14 = system: M14
# MCF7 = system: MCF7
# MDA-MB-435 = system: MDA-MB-435
# MDA-N = system: MDA-N
# NCI-H226 = system: NCI-H226
# NCI-H522 = system: NCI-H522
# NCI/ADR-RES = system: NCI/ADR-RES
# OVCAR-5 = system: OVCAR-5
# OVCAR-8 = system: OVCAR-8
# PC-3 = system: PC-3
# SK-MEL-5 = system: SK-MEL-5
# SNB-75 = system: SNB-75
# TK-10 = system: TK-10
# UACC-62 = system: UACC-62
# NCI-H460 = system: NCI-H460
# HCC 2998 = system: HCC 2998
Structure (SMILES),GI50 (786-0),GI50 (EKVX),GI50 (HT-29),GI50 (KM12),GI50 (M14),GI50 (MCF7),GI50 (MDA-MB-435),GI50 (MDA-N),GI50 (NCI-H226),GI50 (NCI-H522),GI50 (NCI/ADR-RES),GI50 (OVCAR-5),GI50 (OVCAR-8),GI50 (PC-3),GI50 (SK-MEL-5),GI50 (SNB-75),GI50 (TK-10),GI50 (UACC-62),GI50 (NCI-H460),GI50 (HCC 2998)
Cc1cn(C2CC(Br)C(COC(c3ccccc3)(c3ccccc3)c3ccccc3)O2)c(=O)[nH]c1=O (centres undefined),14.3 µM (inactive),14.5 µM (inactive),10.9 µM (inactive),6.71 µM (inactive),13.2 µM (inactive),10 µM (inactive),14.7 µM (inactive),14.9 µM (inactive),19.2 µM (inactive),7.24 µM (inactive),13.7 µM (inactive),16.6 µM (inactive),10.9 µM (inactive),5.73 µM (inactive),12.7 µM (inactive),11.5 µM (inactive),14.7 µM (inactive),12.2 µM (inactive),,
COc1ccc2nc(/C(N)=C\C#N)ccc2c1,34.7 µM (inactive),0.15 µM (active),47.6 µM (inactive),52.1 µM (inactive),42.1 µM (inactive),> 100 µM (inactive),32.6 µM (inactive),45.3 µM (inactive),> 100 µM (inactive),37 µM (inactive),30.8 µM (inactive),> 100 µM (inactive),36.8 µM (inactive),43.7 µM (inactive),11.9 µM (inactive),> 100 µM (inactive),59.2 µM (inactive),6.58 µM (inactive),> 100 µM (inactive),
Cc1n[nH]c(=O)c2c3c([nH]c12)-c1ccccc1C3,> 100 µM (inactive),> 100 µM (inactive),> 100 µM (inactive),> 100 µM (inactive),> 100 µM (inactive),75.3 µM (inactive),> 100 µM (inactive),> 100 µM (inactive),51.1 µM (inactive),> 100 µM (inactive),> 100 µM (inactive),> 100 µM (inactive),> 100 µM (inactive),> 100 µM (inactive),> 100 µM (inactive),18.7 µM (inactive),63.4 µM (inactive),,> 100 µM (inactive),
COC(=O)Nc1nc(=O)c2ccccc2[nH]1,> 100 µM (inactive),> 100 µM (inactive),> 100 µM (inactive),90.4 µM (inactive),> 100 µM (inactive),> 100 µM (inactive),,19.5 µM (inactive),> 100 µM (inactive),50.1 µM (inactive),> 100 µM (inactive),> 100 µM (inactive),> 100 µM (inactive),> 100 µM (inactive),55 µM (inactive),28 µM (inactive),> 100 µM (inactive),> 100 µM (inactive),> 100 µM (inactive),> 100 µM (inactive)
Brc1ccc(/N=N/c2ccc3ccccc3n2)cc1,14.2 µM (inactive),17.6 µM (inactive),47.4 µM (inactive),62.2 µM (inactive),> 100 µM (inactive),25.6 µM (inactive),64.3 µM (inactive),31.8 µM (inactive),10.6 µM (inactive),0.0372 µM (active),33.3 µM (inactive),64.9 µM (inactive),30.3 µM (inactive),22 µM (inactive),20.7 µM (inactive),14.2 µM (inactive),28 µM (inactive),15.6 µM (inactive),7.5 µM (inactive),
CNc1nnc(CCCCCCCCc2nnc(NC)o2)o1,21.1 µM (inactive),> 100 µM (inactive),29.9 µM (inactive),> 100 µM (inactive),> 100 µM (inactive),20.7 µM (inactive),63.8 µM (inactive),> 100 µM (inactive),> 100 µM (inactive),,> 100 µM (inactive),> 100 µM (inactive),34.8 µM (inactive),> 100 µM (inactive),> 100 µM (inactive),> 100 µM (inactive),> 100 µM (inactive),,42 µM (inactive),
CC1CN(C)c2ccccc2N=C1NN (centres undefined),> 100 µM (inactive),> 100 µM (inactive),> 100 µM (inactive),> 100 µM (inactive),> 100 µM (inactive),,> 100 µM (inactive),> 100 µM (inactive),> 100 µM (inactive),> 100 µM (inactive),> 100 µM (inactive),> 100 µM (inactive),> 100 µM (inactive),> 100 µM (inactive),> 100 µM (inactive),,> 100 µM (inactive),> 100 µM (inactive),> 100 µM (inactive),
Cc1c(-c2nc(N)c(C#N)c(N)c2C#N)c(=O)oc2ccccc12,73.8 µM (inactive),68.1 µM (inactive),83 µM (inactive),68.4 µM (inactive),> 100 µM (inactive),73.6 µM (inactive),> 10 µM (inactive),> 100 µM (inactive),> 100 µM (inactive),,> 100 µM (inactive),> 100 µM (inactive),> 100 µM (inactive),34.5 µM (inactive),87.5 µM (inactive),> 100 µM (inactive),> 100 µM (inactive),> 100 µM (inactive),> 100 µM (inactive),> 100 µM (inactive)
CC(C)[C@H](O)C(=O)N[C@H]1Cc2ccc3c(c2)[C@]24C5=C(N=C(O5)[C@H](C(C)C)NC1=O)c1nc(Cl)c(o1)-c1c(Cl)[nH]c5cccc(c15)-c1cccc2c1N[C@H]4O3,0.00535 µM (active),0.224 µM (active),0.0111 µM (active),0.00607 µM (active),0.0311 µM (active),0.00274 µM (active),,0.00162 µM (active),0.00346 µM (active),0.0022 µM (active),0.257 µM (active),0.0242 µM (active),,0.00393 µM (active),0.0103 µM (active),,0.0818 µM (active),,0.0119 µM (active),0.00879 µM (active)
O=c1c(Cc2ccccc2)c(-c2ccccc2)[nH]n1C1=NCCN1,37.3 µM (inactive),39.1 µM (inactive),24.2 µM (inactive),61 µM (inactive),25.3 µM (inactive),40.1 µM (inactive),24.8 µM (inactive),38.5 µM (inactive),46 µM (inactive),40.5 µM (inactive),27.7 µM (inactive),72.6 µM (inactive),40 µM (inactive),36.8 µM (inactive),32.4 µM (inactive),22 µM (inactive),37.6 µM (inactive),32.2 µM (inactive),16.9 µM (inactive),
COC(=O)/C=C(\S/C(=C(/c1ccccc1)n1cc(C(=O)OC)c(C(=O)OC)n1)c1ccccc1)C(=O)OC,4.79 µM (inactive),18.2 µM (inactive),3.33 µM (inactive),54.6 µM (inactive),12.9 µM (inactive),5.26 µM (inactive),15.8 µM (inactive),17.1 µM (inactive),89.1 µM (inactive),,28.4 µM (inactive),18.7 µM (inactive),2 µM (inactive),16.4 µM (inactive),19.3 µM (inactive),29.1 µM (inactive),2.86 µM (inactive),30.5 µM (inactive),30.8 µM (inactive),
